Assay results reported in patent US10906933B2, “Coupled peptide chain for dissolving poorly soluble polypeptides and application thereof for separation and purification in liquid chromatography” (Spec-Chem Industry Inc., priority 2015, dated 2021).

Experiment: Dissolving capacity evaluation of peptide chains at 2 mg/mL in solvents
Type: physicochemical
Settings: for Dissolving capacity, ACN:H2O (1:3): 2 mg/mL in ACN:H2O (1:3) solution in HPLC; for Dissolving capacity, DMF: 2 mg/mL in DMF solution; for Dissolving capacity, DMSO: 2 mg/mL in DMSO solution
Protocol: This test evaluated the dissolving capacity of each group of peptide chain at 2 mg/mL in a DMF solution, a DMSO solution, an ACN:H2O (1:3) solution in HPLC, and an LiOH saturated solution, respectively. The poorly soluble polypeptide chain-linker arm-hydrophilic polypeptide chain in embodiments 1 and 2 were taken as Groups 1 and 2, respectively, and a separate poorly soluble polypeptide chain […] (SEQ ID NO: 1) was taken as a control group, as shown in Table 3: […]

[1] = listed as ILVLLIII (SEQ ID NO: 1) 4-HMBA-DDDDDEEKEEEE (SEQ ID NO: 2)

Sequence | Dissolving capacity, ACN:H2O (1:3) | Dissolving capacity, DMF | Dissolving capacity, DMSO | Dissolving capacity, ACN:H2O (1:3) [1] | Dissolving capacity, DMF [1] | Dissolving capacity, DMSO [1] | Dissolving capacity, LiOH saturated solution (2 mg/mL in LiOH saturated solution, listed as second group)
ILVLLIII (SEQ ID NO: 1) (Poorly soluble polypeptide) [Group 3, the target peptide, reference compound] | very cloudy with solids precipitating | very cloudy with solids precipitating | very cloudy with solids precipitating | – | – | – | –
ILVLLIII (SEQ ID NO: 1)-HMBA-DDDDDEEKEEEE (SEQ ID NO: 2) [Group 1] | – | – | – | clear with no solids precipitating | clear with no solids precipitating | clear with no solids precipitating | –
ILVLLIII (SEQ ID NO: 1)-HPA-RRRRREDKKKKK (SEQ ID NO: 3) [Group 2] | completely dissolved | solids still precipitated | solids still precipitated | – | – | – | obviously not better than that of the first group
